Measured values: patent publication US4732970A, “Antitumor amino acid and peptide derivatives of 1,4-bis(aminoalkyl and hydroxy-aminoalkyl)amino)-5,8-dihydroxyanthraquinones” (priority 1986, dated 1988)

What was measured:
[1] = system: melanotic melanoma B16 tumor; assay: Melanotic Melanoma B16 test; type: in vivo, BDF1 mice; conditions: for Median Survival: BDF1 mice; for T/C × 100 (%): ratio of survival time treated/control
Method: The animals used were BDFl mice, all of the same sex, weighing a minimum of 17 g and all within a 3 g weight range. There were 12 animals per test group. A 1 g portion of melanotic melanoma B16 tumor was homogenized in 10 ml of cold balanced salt solution and a 0.5 ml aliquot of the homogenate was implanted intraperitoneally into each of the test mice. The test compounds were administered intraperitoneally on days 1, 5 and 9 (relative to tumor inoculation) at various doses. The animals were weighed and survivors recorded on a regular basis for 60 days. The median survival time and ratio of survival time for treated (T)/control (C) animals were calculated. The positive control compound was 1,4-bis[(2-aminoethyl)amino]-5,8-dihydroxyanthraquinone, dihydrochloride (U.S. patent application Ser. No. 87,354, filed Oct. 23, 1979).

[2] = system: lymphocytic leukemia P388; assay: Lymphocytic Leukemia P388 Test; type: in vivo, BDF1 mice; conditions: for Median Survival: BDF1 mice
Method in brief: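 BDF1 mice (5–6 per group) were inoculated i.p. with 10^6 P388 cells, then dosed i.p. on days 1, 5 and 9 at various doses. Survival was followed for 60 days, and median survival time and the treated/control (T/C) survival ratio were calculated.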

[3] = dose 0.75 mg/kg intraperitoneally on days 1, 5 and 9
[4] = dose 1.5 mg/kg intraperitoneally on days 1, 5 and 9
[5] = dose 3 mg/kg intraperitoneally on days 1, 5 and 9
[6] = dose 0.75 mg/kg intraperitoneally on days 1, 5 and 9, ratio of survival time treated/control
[7] = dose 1.5 mg/kg intraperitoneally on days 1, 5 and 9, ratio of survival time treated/control
[8] = dose 3 mg/kg intraperitoneally on days 1, 5 and 9, ratio of survival time treated/control

Row | SMILES | Median Survival [1, 3] | T/C × 100 (%) [1, 3] | Median Survival [1, 4] | T/C × 100 (%) [1, 4] | Median Survival [1, 5] | T/C × 100 (%) [1, 5] | Median Survival [2, 3] | T/C × 100 (%) [2, 6] | Median Survival [2, 4] | T/C × 100 (%) [2, 7] | Median Survival [2, 5] | T/C × 100 (%) [2, 8] | response vs control in vivo at 0.75 mg/kg ([2]; Mus musculus, P388, ip, dose 0.75 mg/kg intraperitoneally on days 1, 5 and 9, ratio of survival time treated/control, read-out: T/C × 100 (%)) | response vs control in vivo at 1.5 mg/kg ([2]; Mus musculus, P388, ip, dose 1.5 mg/kg intraperitoneally on days 1, 5 and 9, ratio of survival time treated/control, read-out: T/C × 100 (%)) | response vs control in vivo at 3 mg/kg ([2]; Mus musculus, P388, ip, dose 3 mg/kg intraperitoneally on days 1, 5 and 9, ratio of survival time treated/control, read-out: T/C × 100 (%))
1 | C[C@@H](O)[C@H](N)C(=O)NCCNc1ccc(NCCNC(=O)[C@@H](N)[C@@H](C)O)c2c1C(=O)c1c(O)ccc(O)c1C2=O.O=C(O)C(F)(F)F.O=C(O)C(F)(F)F (relative stereo) [Example 26, [2S-(2R*,2'R*,3S*,3'S*)]-N,N'-[(9,10-Dihydro-5,8-dihydroxy-9,10-dioxo-1,4-anthracenediyl)bis(imino-2,1-ethanediyl)]bis[2-amino-3-hydroxybutanamide]bis(trifluo roacetate)] | 35.0 days | 206% | 39.5 days | 232% | 40.0 days | 235% | 21.0 days | 210% | 22.5 days | 225% | 33.5 days | 335% | – | – | –
2 | Br.Br.Br.Br.NCCCC[C@H](N)C(=O)NCCNc1ccc(NCCNC(=O)[C@@H](N)CCCCN)c2c1C(=O)c1c(O)ccc(O)c1C2=O (relative stereo) [Example 33, [S-(R*,R*)]-N,N'-[(9,10-Dihydro-5,8-dihydroxy-9,10-dioxo-1,4-anthracenediyl)bis(imino-2,1-ethanediyl)]bis[2,6-diaminohexanamide], tetrahydrobromide] | 26.5 days | 156% | 37.5 days | 221% | 25.5 days | 162% | 23.0 days | 230% | 33.0 days | 330% | 13.0 days | 130% | – | – | –
3 | Cl.Cl.NCC(=O)NCCNc1ccc(NCCNC(=O)CN)c2c1C(=O)c1c(O)ccc(O)c1C2=O [Example 19, N,N'-[(9,10-Dihydro-5,8-dihydroxy-9,10-dioxo-1,4-anthracenediyl)bis(imino-2,1-ethanediyl)]bis[2-amino-acetamide], dihydrochloride] | 27.5 days | 162% | 28.0 days | 165% | 37.0 days | 218% | 22.0 days | – | 24.0 days | – | 34.5 days | – | 183% | 200% | 288%
